Here are results for 29 compounds from patent publication US20250129044A1 (priority 2021, published 2025).

Some results are limits rather than exact numbers.

The target of this test is sodium channel isoforms (Homo sapiens, UniProt P35498). In kind it is cell-based. The note with it: area under the sodium current trace, step from −120 mV to 0 mV, HEK cells. The method, then:
The sodium channel isoforms of interest are stably expressed in Human Embryonic Kidney Cells and the currents that flow through those channels in response to a depolarizing voltage clamp step from −120 mV to 0 mV are measured in the presence of increasing concentrations of the chemical agents. The area under the sodium current trace which correlates to the magnitude of sodium flux through the cell membrane is used to quantify the effects on gating of the channels. Other parameters that are measured in the assay include the peak current, time constant of open state inactivation and the voltage dependence of steady state inactivation properties. The concentration responses are used to determine potency of each chemical agents effects on modulating the sodium channel isoform gating. Such techniques are known to those skilled in the art, and may be developed, using current technologies, into low or medium throughput assays for evaluating compounds for their ability to modulate sodium channel behaviour.
On to `CC(C)c1ncc(C(=O)Nc2c(-c3ccccc3)ccnc2C23CCOCC2C3)cn1` (racemic) [Example 12, (±)—N-(2-(3-oxabicyclo[4.1.0]heptan-6-yl)-4-phenylpyridin-3-yl)-2-isopropylpyrimidine-5-carboxamide], for which the “Empirical Emax” value is given as “+ (+ indicates a value less than 2.0 μM)”.

For the compound `CC(C)c1ncc(C(=O)Nc2c(-c3ccccc3F)ccnc2C2CC3(C2)CC3(F)F)cn1` (centres unmarked) [Example 22, N-[2-(2,2-difluorospiro[2.3]hexan-5-yl)-4-(2-fluorophenyl)-3-pyridyl]-2-isopropyl-pyrimidine-5-carboxamide], the “Empirical Emax” value is recorded as “+++ (+++ indicates a value from 5.0 up to 7.5 μM)”.

In the case of `Fc1ccc(F)c(-c2ccnc(C3CCC(F)(F)C3)c2-c2nc3c([nH]2)COCC3)c1` (centres unmarked) [Example 48, 2-(2-(3,3-difluorocyclopentyl)-4-(2,5-difluorophenyl)pyridin-3-yl)-3,4,6,7-tetrahydropyrano[3,4-d]imidazole], the “Empirical Emax” value is “+++ (+++ indicates a value from 5.0 up to 7.5 μM)”.

On to `CC(C)c1ncc(C(=O)Nc2c(-c3cc(F)ccc3F)ccnc2C2CCC(F)(F)CC2)cn1` [Example 6, N-[2-(4,4-difluorocyclohexyl)-4-(2,5-difluorophenyl)-3-pyridyl]-2-isopropyl-pyrimidine-5-carboxamide], for which the “Empirical Emax” value is given as “+++ (+++ indicates a value from 5.0 up to 7.5 μM)”.

`CC(C)c1ncc(C(=O)Nc2c(-c3ccccc3F)ccnc2C2CC(C(F)(F)F)C2)cn1` (centres unmarked) [Example 35, N-(4-(2-fluorophenyl)-2-(3-(trifluoromethyl)cyclobutyl)pyridin-3-yl)-2-isopropylpyrimidine-5-carboxamide]: the “Empirical Emax” value is given as “+++ (+++ indicates a value from 5.0 up to 7.5 μM)”.

Consider `CC(C)Oc1ncc(C(=O)Nc2c(-c3cc(F)ccc3F)ccnc2C2CCC(F)(F)CC2)cn1` [Example 7, N-[2-(4,4-difluorocyclohexyl)-4-(2,5-difluorophenyl)-3-pyridyl]-2-isopropoxy-pyrimidine-5-carboxamide], for which the “Empirical Emax” value is reported as “++++ (++++ indicates a value greater than 7.5)”.

In the case of `CC(C)Oc1ncc(C(=O)Nc2c(-c3ccccc3F)ccnc2C2CCC(F)(F)CC2)cn1` [Example 4, N-[2-(4,4-difluorocyclohexyl)-4-(2-fluorophenyl)-3-pyridyl]-2-isopropoxy-pyrimidine-5-carboxamide], the “Empirical Emax” value is given as “++++ (++++ indicates a value greater than 7.5)”.

The term EC50 denotes the concentration that produces a half-maximal response. High values mean weaker potency, low ones greater potency. For the compound `O=C(Nc1c(-c2cc(F)ccc2F)ccnc1C1CCC(F)(F)CC1)c1cnc(N2C3CCC2COC3)nc1` [Example 159, 2-(3-oxa-8-azabicyclo[3.2.1]octan-8-yl)-N-(2-(4,4-difluorocyclohexyl)-4-(2,5-difluorophenyl)pyridin-3-yl)pyrimidine-5-carboxamide], the EC50 is under 1000 nM.

In the case of `CC(C)c1ncc(C(=O)Nc2c(-c3ccccc3F)ccnc2C2CCC(F)(F)C2)cn1` (centres unmarked) [Example 24, N-[2-(3,3-difluorocyclopentyl)-4-(2-fluorophenyl)-3-pyridyl]-2-isopropyl-pyrimidine-5-carboxamide], the “Empirical Emax” value is given as “++++ (++++ indicates a value greater than 7.5)”.

Turning to `CC(C)c1ncc(C(=O)Nc2c(-c3ccccc3F)ccnc2[C@H]2CC[C@@H](C(F)(F)F)CC2)cn1` [Example 29, N-[4-(2-fluorophenyl)-2-[4-(trifluoromethyl)cyclohexyl]-3-pyridyl]-2-isopropyl-pyrimidine-5-carboxamide], the “Empirical Emax” value is recorded as “+ (+ indicates a value less than 2.0 μM)”.

Turning to `CC(C)c1ncc(C(=O)Nc2c(-c3ccccc3F)ccnc2C2CCC3(C2)CC3(F)F)cn1` (centres unmarked) [Example 27, N-[2-(2,2-difluorospiro[2.4]heptan-6-yl)-4-(2-fluorophenyl)-3-pyridyl]-2-isopropyl-pyrimidine-5-carboxamide], the “Empirical Emax” value was “+++ (+++ indicates a value from 5.0 up to 7.5 μM)”.

Regarding `CC(C)c1ncc(C(=O)Nc2c(-c3ccccc3F)ccnc2C2CC(F)(F)C2)cn1` [Example 32, N-(2-(3,3-difluorocyclobutyl)-4-(2-fluorophenyl)pyridin-3-yl)-2-isopropylpyrimidine-5-carboxamide], the “Empirical Emax” value is recorded as “+++ (+++ indicates a value from 5.0 up to 7.5 μM)”.

Take `CC(C)c1ncc(C(=O)Nc2c(-c3ccccc3F)ccnc2C2C[C@@H]3[C@H](C2)C3(F)F)cn1` (stereo partly drawn) [Example 23, N-[2-[(1R,5S)-6,6-difluoro-3-bicyclo[3.1.0]hexanyl]-4-(2-fluorophenyl)-3-pyridyl]-2-isopropyl-pyrimidine-5-carboxamide]: the “Empirical Emax” value is reported as “++++ (++++ indicates a value greater than 7.5)”.

In the case of `O=C(Nc1ccc(Cl)nc1)c1c(-c2ccccc2F)ccnc1C1=CCOCC1` [Example 51], the “Empirical Emax” value is “+ (+ indicates a value less than 2.0 μM)”.

For `COc1ccc(C(=O)Nc2c(-c3cc(F)ccc3F)ccnc2C2CCC(F)(F)CC2)cn1` [Example 8, N-[2-(4,4-difluorocyclohexyl)-4-(2,5-difluorophenyl)-3-pyridyl]-6-methoxy-pyridine-3-carboxamide], the “Empirical Emax” value is “+++ (+++ indicates a value from 5.0 up to 7.5 μM)”.

Take `CC(C)c1ncc(C(=O)Nc2c(-c3ccccc3F)ccnc2C2CCCOC2)cn1` (centres unmarked) [Example 16, N-[4-(2-fluorophenyl)-2-tetrahydropyran-3-yl-3-pyridyl]-2-isopropyl-pyrimidine-5-carboxamide]: the “Empirical Emax” value is reported as “++ (++ indicates a value from 2.0 up to 5.0 μM)”.

As for `CC(C)c1ncc(C(=O)Nc2c(-c3ccccc3F)ccnc2C2CCCCO2)cn1` (centres unmarked) [Example 18, N-[4-(2-fluorophenyl)-2-tetrahydropyran-2-yl-3-pyridyl]-2-isopropyl-pyrimidine-5-carboxamide], the “Empirical Emax” value is reported as “+++ (+++ indicates a value from 5.0 up to 7.5 μM)”.

`CC(C)c1ncc(C(=O)Nc2c(-c3ccccc3F)ccnc2C2CCC(F)(F)CC2)cn1` [Example 15, N-[2-(4,4-difluorocyclohexyl)-4-(2-fluorophenyl)-3-pyridyl]-2-isopropyl-pyrimidine-5-carboxamide]: the “Empirical Emax” value was “++++ (++++ indicates a value greater than 7.5)”.

As for `CO[C@H]1CC[C@H](c2nccc(-c3ccccc3F)c2NC(=O)c2cnc(C(C)C)nc2)CC1` [Example 39], the “Empirical Emax” value is on record as “+ (+ indicates a value less than 2.0 μM)”.

For `CO[C@H]1CC[C@@H](c2nccc(-c3ccccc3F)c2NC(=O)c2cnc(C(C)C)nc2)CC1` [Example 38], the “Empirical Emax” value is “+ (+ indicates a value less than 2.0 μM)”.

`CN(C)c1ncc(C(=O)Nc2c(-c3ccccc3F)ccnc2C2CCC(F)(F)CC2)cn1` [Example 2, N-[2-(4,4-difluorocyclohexyl)-4-(2-fluorophenyl)-3-pyridyl]-2-(dimethylamino)pyrimidine-5-carboxamide]: the “Empirical Emax” value is given as “++++ (++++ indicates a value greater than 7.5)”.

As to `CC(C)c1ncc(C(=O)Nc2c(-c3ccccc3)ccnc2C2CCCN2C(=O)OC(C)(C)C)cn1` (racemic) [Example 13, (±)-tert-butyl 2-(3-(2-isopropylpyrimidine-5-carboxamido)-4-phenylpyridin-2-yl)pyrrolidine-1-carboxylate], the “Empirical Emax” value was “+ (+ indicates a value less than 2.0 μM)”.

Consider `CC(C)c1ncc(C(=O)Nc2c(-c3cc(F)ccc3F)ccnc2C2CCC(F)(F)CO2)cn1` (centres unmarked) [Example 9, N-[4-(2,5-difluorophenyl)-2-(5,5-difluorotetrahydropyran-2-yl)-3-pyridyl]-2-isopropyl-pyrimidine-5-carboxamide], for which the “Empirical Emax” value is on record as “+++ (+++ indicates a value from 5.0 up to 7.5 μM)”.

For the compound `CC(C)c1ncc(C(=O)Nc2c(-c3ccccc3F)ccnc2[C@H]2CC[C@](O)(C(F)(F)F)CC2)cn1` [Example 21, N-[4-(2-fluorophenyl)-2-[4-hydroxy-4-(trifluoromethyl)cyclohexyl]-3-pyridyl]-2-isopropyl-pyrimidine-5-carboxamide], the “Empirical Emax” value is “+ (+ indicates a value less than 2.0 μM)”.

Turning to `CC(C)c1ncc(C(=O)Nc2c(-c3ccccc3)ccnc2C2CCCN2)cn1` (centres unmarked) [Example 40, 2-isopropyl-N-(4-phenyl-2-(pyrrolidin-2-yl)pyridin-3-yl)pyrimidine-5-carboxamide], the “Empirical Emax” value was “+ (+ indicates a value less than 2.0 μM)”.

As for `CC(C)c1ccc(NC(=O)c2c(-c3ccccc3F)ccnc2C2CCOCC2)cn1` [Example 53, 4-(2-fluorophenyl)-N-(6-isopropylpyridin-3-yl)-2-(tetrahydro-2H-pyran-4-yl)nicotinamide], the “Empirical Emax” value is “++ (++ indicates a value from 2.0 up to 5.0 μM)”.

With `CN1C[C@H]2CC[C@@H](C1)N2c1ncc(C(=O)Nc2c(-c3cc(F)ccc3F)ccnc2C2CCC(F)(F)CC2)cn1` [Example 160, N-(2-(4,4-difluorocyclohexyl)-4-(2,5-difluorophenyl)pyridin-3-yl)-2-((1R,5S)-3-methyl-3,8-diazabicyclo[3.2.1]octan-8-yl)pyrimidine-5-carboxamide], the EC50 is under 1000 nM.

On to `O=C(Nc1c(-c2cc(F)ccc2F)ccnc1C1CCC(F)(F)CC1)c1cnc(N2CC3CC(C2)O3)nc1` [Example 167, 2-(6-oxa-3-azabicyclo[3.1.1]heptan-3-yl)-N-(2-(4,4-difluorocyclohexyl)-4-(2,5-difluorophenyl)pyridin-3-yl)pyrimidine-5-carboxamide], for which the EC50 was under 1000 nM.

As to `CC(C)c1ncc(C(=O)Nc2c(-c3ccccc3F)ccnc2[C@H]2CC[C@H](C(F)(F)F)CC2)cn1` [Example 30, N-[4-(2-fluorophenyl)-2-[4-(trifluoromethyl)cyclohexyl]-3-pyridyl]-2-isopropyl-pyrimidine-5-carboxamide], the “Empirical Emax” value is listed as “++ (++ indicates a value from 2.0 up to 5.0 μM)”.
